Patent US8101550B2, “Anthranilic acid diamide derivative with hetero-aromatic and hetero-cyclic substituents” (Bayer Cropscience AG, priority 2006, dated 2012)

Experiment: log P determination by HPLC on reverse-phase column (EEC Directive 79/831 Annex V.A8)
Assay type: physicochemical
Settings: not given
Procedure: The log P values stated in the foregoing tables and preparation examples are determined in accordance with EEC Directive 79/831 Annex V.A8 by means of HPLC (High Performance Liquid Chromatography) on a reverse-phase column (C 18). Temperature: 43° C.
The determination by LC-MS in the acidic range takes place at a pH of 2.7 using 0.1% aqueous formic acid and acetonitrile (containing 0.1% formic acid) as eluents; linear gradient from 10% acetonitrile to 95% acetonitrile.
Calibration is with unbranched alkan-2-ones (having 3 to 16 carbon atoms) of known log P value (log P values determined from the retention times by linear interpolation between two successive alkanones).

Structure (SMILES)	logP
Cc1cc(Cl)cc(C(=O)NC(C)C)c1NC(=O)c1cc(Cn2nnc(-c3ccc(Br)cc3)n2)nn1-c1ncccc1Cl [I-1-151]	4.20
CSC[C@H](C)NC(=O)c1cc(Cl)cc(C)c1NC(=O)c1cc(Cn2nnc(-c3ccc(Br)cc3)n2)nn1-c1ncccc1Cl [I-1-152]	4.41
CNC(=O)c1cc(Cl)cc(C)c1NC(=O)c1cc(Cn2cnc(-c3ccc(Cl)cc3)n2)nn1-c1ncccc1Cl [I-1-153]	3.07

Same assay, conditions: HPLC on reverse-phase column

Structure (SMILES)	logP
Cc1cc(Br)cc(C(=O)NC2CC2)c1NC(=O)c1cc(Cn2cc(Br)c(C(F)(F)F)n2)nn1-c1ncccc1Cl [I-1-93]	3.69
Cc1cc(Cl)cc(C(N)=O)c1NC(=O)c1cc(Cn2nnn(-c3cc(C(F)(F)F)cc(C(F)(F)F)c3)c2=O)nn1-c1ncccc1Cl [I-1-94]	3.85
Cc1cc(Cl)cc(C(=O)NCC#N)c1NC(=O)c1cc(Cn2nnn(-c3cc(C(F)(F)F)cc(C(F)(F)F)c3)c2=O)nn1-c1ncccc1Cl [I-1-95]	4.01
CNC(=O)c1cc(Cl)cc(C)c1NC(=O)c1cc(Cn2nnn(-c3cc(Cl)cc(Cl)c3)c2=O)nn1-c1ncccc1Cl [I-1-96]	3.90
Cc1cc(Br)cc(C(=O)NCC#N)c1NC(=O)c1cc(Cn2cc(Br)c(C(F)(F)F)n2)nn1-c1ncccc1Cl [I-1-97]	3.45
CSCC(C)(C)NC(=O)c1cc(Br)cc(C)c1NC(=O)c1cc(Cn2cc(Br)c(C(F)(F)F)n2)nn1-c1ncccc1Cl [I-1-98]	4.47
CSCC(C)NC(=O)c1cc(Br)cc(C)c1NC(=O)c1cc(Cn2cc(Br)c(C(F)(F)F)n2)nn1-c1ncccc1Cl (stereo not drawn) [I-1-99]	4.10
Cc1cc(Br)cc(C(N)=O)c1NC(=O)c1cc(Cn2cc(Br)c(C(F)(F)F)n2)nn1-c1ncccc1Cl [I-1-100]	3.24
Cc1cc(Br)cc(C(=O)NC(C)CS(C)(=O)=O)c1NC(=O)c1cc(Cn2cc(Br)c(C(F)(F)F)n2)nn1-c1ncccc1Cl (stereo not drawn) [I-1-101]	3.32
CNC(=O)c1cc(Cl)cc(C)c1NC(=O)c1cc(Cn2ccc(Cl)n2)nn1-c1ncccc1Cl [I-1-102]	2.51
Cc1cc(Cl)cc(C(=O)NC(C)C)c1NC(=O)c1cc(Cn2ccc(Cl)n2)nn1-c1ncccc1Cl [I-1-103]	2.96
CNC(=O)c1cc(Cl)cc(C)c1NC(=O)c1cc(Cn2nnc(-c3ccc(C(F)(F)F)cc3)n2)nn1-c1ncccc1Cl [I-1-104]	3.79
Cc1cc(Cl)cc(C(=O)NC(C)C)c1NC(=O)c1cc(Cn2nnc(-c3ccc(C(F)(F)F)cc3)n2)nn1-c1ncccc1Cl [I-1-105]	4.14
Cc1cc(Cl)cc(C(N)=O)c1NC(=O)c1cc(Cn2nnc(-c3ccc(C(F)(F)F)cc3)n2)nn1-c1ncccc1Cl [I-1-106]	3.46
Cc1cc(Cl)cc(C(=O)NCC#N)c1NC(=O)c1cc(Cn2nnc(-c3ccc(C(F)(F)F)cc3)n2)nn1-c1ncccc1Cl [I-1-107]	3.65
CNC(=O)c1cc(Cl)cc(C)c1NC(=O)c1cc(Cn2nnn(-c3ccc(C(F)(F)F)c(Cl)c3)c2=O)nn1-c1ncccc1Cl [I-1-108]	3.90
CNC(=O)c1cc(Cl)cc(C)c1NC(=O)c1cc(Cn2nnn(-c3ccc(C(F)(F)F)cc3Cl)c2=O)nn1-c1ncccc1Cl [I-1-109]	3.51
CNC(=O)c1cc(Cl)cc(C)c1NC(=O)c1cc(Cn2cc(I)c(I)n2)nn1-c1ncccc1Cl [I-1-110]	3.13
Cc1cc(Cl)cc(C(=O)NC(C)C)c1NC(=O)c1cc(Cn2cc(I)c(I)n2)nn1-c1ncccc1Cl [I-1-111]	3.58

Structure (SMILES)	logP
CNC(=O)c1cc(Cl)cc(C)c1NC(=O)c1cc(Cn2nnc(-c3cc(C(F)(F)F)cc(C(F)(F)F)c3)n2)nn1-c1ncccc1Cl [I-1-112]	4.28
Cc1cc(Br)cc(C(=O)NC(C)C[S+](C)[O-])c1NC(=O)c1cc(Cn2cc(Br)c(C(F)(F)F)n2)nn1-c1ncccc1Cl (stereo not drawn) [I-1-113]	2.97
Cc1cc(Cl)cc(C(N)=O)c1NC(=O)c1cc(Cn2nnc(-c3cc(C(F)(F)F)cc(C(F)(F)F)c3)n2)nn1-c1ncccc1Cl [I-1-114]	4.03
Cc1cc(Cl)cc(C(=O)NC(C)C)c1NC(=O)c1cc(Cn2nnn(C)c2=O)nn1-c1ncccc1Cl [I-1-115]	2.31
CNC(=O)c1cc(Cl)cc(C)c1NC(=O)c1cc(Cn2nc(C(F)(F)F)n(C)c2=O)nn1-c1ncccc1Cl [I-1-116]	2.44
Cc1cc(Cl)cc(C(=O)NC(C)C)c1NC(=O)c1cc(Cn2nc(C(F)(F)F)n(C)c2=O)nn1-c1ncccc1Cl [I-1-117]	2.85
CNC(=O)c1cc(Cl)cc(C)c1NC(=O)c1cc(Cn2nc(C(F)(F)F)n(-c3ccccc3)c2=O)nn1-c1ncccc1Cl [I-1-118]	3.10
Cc1cc(Cl)cc(C(=O)NC(C)C)c1NC(=O)c1cc(Cn2nc(C(F)(F)F)n(-c3ccccc3)c2=O)nn1-c1ncccc1Cl [I-1-119]	3.54
Cc1cc(Cl)cc(C(=O)NC(C)CS(C)(=N)=O)c1NC(=O)c1cc(Cn2nc(C(F)(F)F)nc2C(F)(F)F)nn1-c1ncccc1Cl (stereo not drawn) [I-1-120]	2.75
Cc1cc(Br)cc(C(=O)NC(C)(C)CS(C)(=O)=O)c1NC(=O)c1cc(Cn2cc(Br)c(C(F)(F)F)n2)nn1-c1ncccc1Cl [I-1-121]	3.57
CNC(=O)c1cc(Cl)cc(C)c1NC(=O)c1cc(Cn2nnn(CC(F)(F)F)c2=O)nn1-c1ncccc1Cl [I-1-122]	2.51
Cc1cc(Cl)cc(C(=O)NC(C)C)c1NC(=O)c1cc(Cn2nnn(CC(F)(F)F)c2=O)nn1-c1ncccc1Cl [I-1-123]	2.92
CNC(=O)c1cc(Cl)cc(C)c1NC(=O)c1cc(Cn2ccc(Br)n2)nn1-c1ncccc1Cl [I-1-125]	2.56
Cc1cc(Cl)cc(C(=O)NC(C)C)c1NC(=O)c1cc(Cn2nc(C(F)(F)F)n(C3CC3)c2=O)nn1-c1ncccc1Cl [I-1-126]	3.18
CNC(=O)c1cc(Cl)cc(C)c1NC(=O)c1cc(Cn2nc(C(F)(F)F)n(C3CC3)c2=O)nn1-c1ncccc1Cl [I-1-127]	2.74
Cc1cc(Cl)cc(C(=O)NC(C)(C)C[S+](C)[O-])c1NC(=O)c1cc(Cn2cc(Br)c(C(F)(F)F)n2)nn1-c1ncccc1Cl (stereo not drawn) [I-1-128]	3.25
Cc1cc(Cl)cc(C(=O)N[C@@H](C)CS(C)(=O)=O)c1NC(=O)c1cc(Cn2nc(C(F)(F)F)nc2C(F)(F)F)nn1-c1ncccc1Cl [I-1-129]	3.27
CSC[C@H](C)NC(=O)c1cc(Cl)cc(C)c1NC(=O)c1cc(Cn2cc(Br)c(C(F)(F)F)n2)nn1-c1ncccc1Cl [I-1-130]	4.11
CSCC(C)(C)NC(=O)c1cc(Cl)cc(C)c1NC(=O)c1cc(Cn2cc(Br)c(C(F)(F)F)n2)nn1-c1ncccc1Cl [I-1-131]	4.48

Structure (SMILES)	logP
CNC(=O)c1cc(Cl)cc(C)c1NC(=O)c1cc(Cn2cnc(C(F)(F)F)c2)nn1-c1ncccc1Cl [I-1-132]	2.39
Cc1cc(Cl)cc(C(=O)NC(C)C)c1NC(=O)c1cc(Cn2cnc(C(F)(F)F)c2)nn1-c1ncccc1Cl [I-1-133]	2.77
CSCC(C)(C)NC(=O)c1cc(Br)cc(C)c1NC(=O)c1cc(Cn2nc(C(F)(F)F)nc2C(F)(F)F)nn1-c1ncccc1Cl [I-1-134]	4.63
CSC[C@H](C)NC(=O)c1cc(Br)cc(C)c1NC(=O)c1cc(Cn2nc(C(F)(F)F)nc2C(F)(F)F)nn1-c1ncccc1Cl [I-1-135]	4.24
Cc1cc(Cl)cc(C(=O)NC(C)(C)C[S+](C)[O-])c1NC(=O)c1cc(Cn2cc(Br)c(C(F)(F)F)n2)nn1-c1ncccc1Cl (stereo not drawn) [I-1-136]	3.23
Cc1cc(Cl)cc(C(=O)NC(C)(C)C[S+](C)[O-])c1NC(=O)c1cc(Cn2nc(C(F)(F)F)nc2C(F)(F)F)nn1-c1ncccc1Cl (stereo not drawn) [I-1-137]	3.22
Cc1cc(Cl)cc(C(=O)N[C@@H](C)C[S+](C)[O-])c1NC(=O)c1cc(Cn2cc(Br)c(C(F)(F)F)n2)nn1-c1ncccc1Cl (stereo partly drawn) [I-1-138]	2.91
Cc1cc(Cl)cc(C(=O)NC(C)(C)CS(C)(=O)=O)c1NC(=O)c1cc(Cn2nc(C(F)(F)F)nc2C(F)(F)F)nn1-c1ncccc1Cl [I-1-139]	3.50
Cc1cc(Br)cc(C(=O)N[C@@H](C)C[S+](C)[O-])c1NC(=O)c1cc(Cn2nc(C(F)(F)F)nc2C(F)(F)F)nn1-c1ncccc1Cl (stereo partly drawn) [I-1-140]	3.05
Cc1cc(Cl)cc(C(=O)N[C@@H](C)CS(C)(=O)=O)c1NC(=O)c1cc(Cn2cc(Br)c(C(F)(F)F)n2)nn1-c1ncccc1Cl [I-1-141]	3.26
Cc1cc(Br)cc(C(=O)NC(C)(C)CS(C)(=O)=O)c1NC(=O)c1cc(Cn2nc(C(F)(F)F)nc2C(F)(F)F)nn1-c1ncccc1Cl [I-1-142]	3.67
Cc1cc(Br)cc(C(=O)NC(C)(C)C[S+](C)[O-])c1NC(=O)c1cc(Cn2nc(C(F)(F)F)nc2C(F)(F)F)nn1-c1ncccc1Cl (stereo not drawn) [I-1-143]	3.20
Cc1cc(Br)cc(C(=O)NC(C)(C)C[S+](C)[O-])c1NC(=O)c1cc(Cn2nc(C(F)(F)F)nc2C(F)(F)F)nn1-c1ncccc1Cl (stereo not drawn) [I-1-144]	3.38
Cc1cc(Cl)cc(C(=O)NC(C)(C)CS(C)(=O)=O)c1NC(=O)c1cc(Cn2cc(Br)c(C(F)(F)F)n2)nn1-c1ncccc1Cl [I-1-145]	3.56
Cc1cc(Br)cc(C(=O)N[C@@H](C)CS(C)(=O)=O)c1NC(=O)c1cc(Cn2nc(C(F)(F)F)nc2C(F)(F)F)nn1-c1ncccc1Cl [I-1-146]	3.36
Cc1cc(Cl)cc(C(=O)N[C@@H](C)C[S+](C)[O-])c1NC(=O)c1cc(Cn2nc(C(F)(F)F)nc2C(F)(F)F)nn1-c1ncccc1Cl (stereo partly drawn) [I-1-147]	2.95
CNC(=O)c1cc(Cl)cc(C)c1NC(=O)c1cc(Cn2nnc(-c3ccc(Cl)nc3)n2)nn1-c1ncccc1Cl [I-1-148]	2.91
Cc1cc(Cl)cc(C(=O)NC(C)C)c1NC(=O)c1cc(Cn2nnc(-c3ccc(Cl)nc3)n2)nn1-c1ncccc1Cl [I-1-149]	3.41
CNC(=O)c1cc(Cl)cc(C)c1NC(=O)c1cc(Cn2nnc(-c3ccc(Br)cc3)n2)nn1-c1ncccc1Cl [I-1-150]	3.70
